Test results as given in patent US6054435A, “6-O-substituted macrolides having antibacterial activity” (priority 1999, dated 2000).
In brackets after ≈: the same amount, converted by molar mass.

How the values were obtained:
Assay in all cases: in vitro antibacterial activity (MIC), agar dilution
Assay type in all cases: cell-based
Escherichia coli JUHL = conditions: organism code QQ; BHI agar, 35-37° C., 20 to 24 hours; unit assumed
Protocol: (§1) Representative compounds of the present invention were assayed in vitro for antibacterial activity as follows: Twelve petri dishes containing successive aqueous dilutions of the test compound mixed with 10 mL of sterilized Brain Heart Infusion (BHI) agar (Difco 0418-01-5) were prepared. Each plate was inoculated with 1:100 (or 1:10 for slow-growing strains, such as Micrococcus and Streptococcus) dilutions of up to 32 different microorganisms, using a Steers replicator block. […] In addition, a control plate, using BHI agar containing no test compound, was prepared and incubated at the beginning and end of each test.
(§2) An additional plate containing a compound having known susceptibility patterns for the organisms being tested and belonging to the same antibiotic class as the test compound was also prepared and incubated as a further control, as well as to provide test-to-test comparability.
(§3) After incubation, each plate was visually inspected. The minimum inhibitory concentration (MIC) was defined as the lowest concentration of drug yielding no growth, a slight haze, or sparsely isolated colonies on the inoculum spot as compared to the growth control.

Escherichia coli SS = conditions: organism code RR; BHI agar, 35-37° C., 20 to 24 hours; unit assumed
Protocol: as §1, §2, §3

[1] = system: Streptococcus agalactiae CMX 508; conditions: organism code KK; BHI agar, 35-37° C., 20 to 24 hours; unit assumed
Protocol: as §1, §2, §3

[2] = system: Staphylococcus aureus CMX 553; conditions: organism code FF; BHI agar, 35-37° C., 20 to 24 hours; unit assumed
Protocol: as §1, §2, §3

[3] = system: Streptococcus pyogenes PIU 2548; conditions: organism code NN; BHI agar, 35-37° C., 20 to 24 hours; unit assumed
Protocol: as §1, §2, §3

[4] = system: Staphylococcus aureus A5177; conditions: organism code BB; BHI agar, 35-37° C., 20 to 24 hours; unit assumed
Protocol: as §1, §2, §3

[5] = system: Micrococcus luteus ATCC 9341; conditions: organism code OO; BHI agar, 35-37° C., 20 to 24 hours; unit assumed
Protocol: as §1, §2, §3

[6] = system: Streptococcus pyogenes 930; conditions: organism code MM; BHI agar, 35-37° C., 20 to 24 hours; unit assumed
Protocol: as §1, §2, §3

[7] = system: Nocardia Asteroides ATCC9970; conditions: organism code VV; BHI agar, 35-37° C., 20 to 24 hours; unit assumed
Protocol: as §1, §2, §3

Candida albicans CCH 442 = conditions: organism code TT; BHI agar, 35-37° C., 20 to 24 hours; unit assumed
Protocol: as §1, §2, §3

[8] = system: Mycobacterium smegmatis ATCC 114; conditions: organism code UU; BHI agar, 35-37° C., 20 to 24 hours; unit assumed
Protocol: as §1, §2, §3

[9] = system: Staphylococcus aureus 1775; conditions: organism code GG; BHI agar, 35-37° C., 20 to 24 hours; unit assumed
Protocol: as §1, §2, §3

[10] = system: Staphylococcus aureus A-5278; conditions: organism code CC; BHI agar, 35-37° C., 20 to 24 hours; unit assumed
Protocol: as §1, §2, §3

[11] = system: Streptococcus pyogenes EES61; conditions: organism code LL; BHI agar, 35-37° C., 20 to 24 hours; unit assumed
Protocol: as §1, §2, §3

[12] = system: Streptococcus Pneumonia GYR 1171; conditions: organism code YY; BHI agar, 35-37° C., 20 to 24 hours; unit assumed
Protocol: as §1, §2, §3

Escherichia coli DC-2 = conditions: organism code SS; BHI agar, 35-37° C., 20 to 24 hours; unit assumed
Protocol: as §1, §2, §3

[13] = system: Staphylococcus epidermidis 3519; conditions: organism code HH; BHI agar, 35-37° C., 20 to 24 hours; unit assumed
Protocol: as §1, §2, §3

[14] = system: Staphylococcus aureus ATCC 6538P; conditions: organism code AA; BHI agar, 35-37° C., 20 to 24 hours; unit assumed
Protocol: as §1, §2, §3

[15] = system: Streptococcus Pneumonia ATCC6303; conditions: organism code XX; BHI agar, 35-37° C., 20 to 24 hours; unit assumed
Protocol: as §1, §2, §3

[16] = system: Micrococcus luteus ATCC 4698; conditions: organism code PP; BHI agar, 35-37° C., 20 to 24 hours; unit assumed
Protocol: as §1, §2, §3

[17] = system: Staphylococcus aureus NCTC10649M; conditions: organism code EE; BHI agar, 35-37° C., 20 to 24 hours; unit assumed
Protocol: as §1, §2, §3

[18] = system: Enterococcus faecium ATCC 8043; conditions: organism code II; BHI agar, 35-37° C., 20 to 24 hours; unit assumed
Protocol: as §1, §2, §3

[19] = system: Streptococcus Pneumonia 5979; conditions: organism code ZZ; BHI agar, 35-37° C., 20 to 24 hours; unit assumed
Protocol: as §1, §2, §3

[20] = system: Haemophilis Influenzae DILL AMP R; conditions: organism code WW; BHI agar, 35-37° C., 20 to 24 hours; unit assumed
Protocol: as §1, §2, §3

[21] = system: Streptococcus bovis A-5169; conditions: organism code JJ; BHI agar, 35-37° C., 20 to 24 hours; unit assumed
Protocol: as §1, §2, §3

[22] = system: Staphylococcus aureus CMX 642A; conditions: organism code DD; BHI agar, 35-37° C., 20 to 24 hours; unit assumed
Protocol: as §1, §2, §3

SMILES | MIC (Escherichia coli JUHL) [µg/mL] | MIC (Escherichia coli SS) [µg/mL] | MIC [1] [µg/mL] | MIC [2] [µg/mL] | MIC [3] [µg/mL] | MIC [4] [µg/mL] | MIC [5] [µg/mL] | MIC [6] [µg/mL] | MIC [7] [µg/mL] | MIC (Candida albicans CCH 442) [µg/mL] | MIC [8] [µg/mL] | MIC [9] [µg/mL] | MIC [10] [µg/mL] | MIC [11] [µg/mL] | MIC [12] [µg/mL] | MIC (Escherichia coli DC-2) [µg/mL] | MIC [13] [µg/mL] | MIC [14] [µg/mL] | MIC [15] [µg/mL] | MIC [16] [µg/mL] | other results
CC[C@H]1OC(=O)[C@H](C)C(=O)[C@H](C)[C@@H](O[C@@H]2O[C@H](C)C[C@H](N(C)C)[C@H]2O)[C@](C)(OC/C=C/c2cncc(-c3cnc4ccccc4c3)c2)C[C@@H](C)C(=O)[C@H](C)[C@H]2NC(=O)O[C@@]21C [Example 44] | 100 (≈ 119 µM) | 0.2 (≈ 0.237 µM) | 0.05 (≈ 0.0593 µM) | 0.05 (≈ 0.0593 µM) | 0.1 (≈ 0.119 µM) | 0.1 (≈ 0.119 µM) | 0.01 (≈ 0.0119 µM) | 6.2 (≈ 7.35 µM) | 0.1 (≈ 0.119 µM) | > 100 | 0.39 (≈ 0.463 µM) | > 100 | > 100 | 0.01 (≈ 0.0119 µM) | ≤ 0.004 | 50 (≈ 59.3 µM) | 0.1 (≈ 0.119 µM) | 0.1 (≈ 0.119 µM) | ≤ 0.004 | 0.1 (≈ 0.119 µM) | MIC [17]: 0.2 µg/mL (≈ 0.237 µM); MIC [18]: 0.05 µg/mL (≈ 0.0593 µM); MIC [19]: 8 µg/mL (≈ 9.49 µM); MIC [20]: 2 µg/mL (≈ 2.37 µM); MIC [21]: 0.01 µg/mL (≈ 0.0119 µM); MIC [22]: 0.1 µg/mL (≈ 0.119 µM)
CC[C@H]1OC(=O)[C@H](C)C(=O)[C@H](C)[C@@H](O[C@@H]2O[C@H](C)C[C@H](N(C)C)[C@H]2O)[C@](C)(OC/C=C/c2cncc(-c3ccccc3)c2)C[C@@H](C)C(=O)[C@H](C)[C@H]2NC(=O)O[C@@]21C [Example 42] | 100 (≈ 126 µM) | 0.78 (≈ 0.985 µM) | 0.02 (≈ 0.0253 µM) | 0.1 (≈ 0.126 µM) | 0.2 (≈ 0.253 µM) | 0.1 (≈ 0.126 µM) | 0.02 (≈ 0.0253 µM) | 50 (≈ 63.1 µM) | 0.2 (≈ 0.253 µM) | > 100 | 0.39 (≈ 0.492 µM) | > 100 | > 100 | 0.02 (≈ 0.0253 µM) | 0.03 (≈ 0.0379 µM) | 50 (≈ 63.1 µM) | 0.2 (≈ 0.253 µM) | 0.1 (≈ 0.126 µM) | 0.03 (≈ 0.0379 µM) | 0.2 (≈ 0.253 µM) | MIC [17]: 0.2 µg/mL (≈ 0.253 µM); MIC [18]: 0.05 µg/mL (≈ 0.0631 µM); MIC [19]: 32 µg/mL (≈ 40.4 µM); MIC [20]: 4 µg/mL (≈ 5.05 µM); MIC [21]: 0.02 µg/mL (≈ 0.0253 µM); MIC [22]: 0.2 µg/mL (≈ 0.253 µM)
CC[C@H]1OC(=O)[C@H](C)C(=O)[C@H](C)[C@@H](O[C@@H]2O[C@H](C)C[C@H](N(C)C)[C@H]2O)[C@](C)(OC/C=C/c2cncc(-c3ccccn3)c2)C[C@@H](C)C(=O)[C@H](C)[C@H]2NC(=O)O[C@@]21C [Example 43] | 50 (≈ 63.1 µM) | 0.39 (≈ 0.492 µM) | 0.05 (≈ 0.0631 µM) | 0.05 (≈ 0.0631 µM) | 0.2 (≈ 0.252 µM) | 0.05 (≈ 0.0631 µM) | 0.02 (≈ 0.0252 µM) | 25 (≈ 31.5 µM) | 0.05 (≈ 0.0631 µM) | > 100 | 0.78 (≈ 0.984 µM) | > 100 | > 100 | 0.02 (≈ 0.0252 µM) | ≤ 0.004 | 25 (≈ 31.5 µM) | 0.1 (≈ 0.126 µM) | 0.05 (≈ 0.0631 µM) | ≤ 0.004 | 0.2 (≈ 0.252 µM) | MIC [17]: 0.2 µg/mL (≈ 0.252 µM); MIC [18]: 0.05 µg/mL (≈ 0.0631 µM); MIC [19]: 64 µg/mL (≈ 80.7 µM); MIC [20]: 2 µg/mL (≈ 2.52 µM); MIC [21]: 0.02 µg/mL (≈ 0.0252 µM); MIC [22]: 0.1 µg/mL (≈ 0.126 µM)
CC[C@H]1OC(=O)[C@H](C)C(=O)[C@H](C)[C@@H](O[C@@H]2O[C@H](C)C[C@H](N(C)C)[C@H]2O)[C@](C)(OC/C=C/c2cncc(-c3cncnc3)c2)C[C@@H](C)C(=O)[C@H](C)[C@H]2NC(=O)O[C@@]21C [Example 45] | 50 (≈ 63 µM) | 0.39 (≈ 0.491 µM) | ≤ 0.005 | 0.05 (≈ 0.063 µM) | 0.39 (≈ 0.491 µM) | 0.05 (≈ 0.063 µM) | 0.01 (≈ 0.0126 µM) | 25 (≈ 31.5 µM) | 0.05 (≈ 0.063 µM) | > 100 | 1.56 (≈ 1.96 µM) | > 100 | > 100 | ≤ 0.005 | ≤ 0.004 | 25 (≈ 31.5 µM) | 0.1 (≈ 0.126 µM) | 0.05 (≈ 0.063 µM) | 0.008 (≈ 0.0101 µM) | 0.1 (≈ 0.126 µM) | MIC [17]: 0.2 µg/mL (≈ 0.252 µM); MIC [18]: 0.05 µg/mL (≈ 0.063 µM); MIC [19]: > 128 µg/mL; MIC [20]: 2 µg/mL (≈ 2.52 µM); MIC [21]: ≤ 0.005 µg/mL; MIC [22]: 0.1 µg/mL (≈ 0.126 µM)
